For data set [1], the target named is Vascular endothelial growth factor receptor 2 (Homo sapiens, UniProt P35968). Nature of the data set: Inhibition of KDR.
In data set [2] the target is T1, Angiopoietin-1 receptor (Homo sapiens, UniProt Q02763). Kind of data set: Inhibition of Tie2.
Data set [3] has as its target T1, Angiopoietin-1 receptor. Nature of the data set: Inhibition of Tie2 autophosphorylation in human Ea.hy926 cells. It is filed as cell-based.
Data set [4] concerns the target T2, Aurora kinase A (Homo sapiens, UniProt O14965).
T2 sequence (O14965 whole entry): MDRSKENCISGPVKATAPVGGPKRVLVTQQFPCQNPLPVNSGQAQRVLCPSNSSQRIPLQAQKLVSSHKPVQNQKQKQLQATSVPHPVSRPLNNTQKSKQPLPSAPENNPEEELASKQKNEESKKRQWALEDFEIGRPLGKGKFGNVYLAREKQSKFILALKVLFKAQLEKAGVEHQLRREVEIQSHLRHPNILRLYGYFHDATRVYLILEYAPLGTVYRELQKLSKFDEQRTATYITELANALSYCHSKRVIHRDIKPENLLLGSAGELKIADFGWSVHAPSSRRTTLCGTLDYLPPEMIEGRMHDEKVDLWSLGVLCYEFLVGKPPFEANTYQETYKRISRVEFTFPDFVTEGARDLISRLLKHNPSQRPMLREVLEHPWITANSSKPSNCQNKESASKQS
Nature of the data set: Inhibition of Aurora A.

The target in data set [5] is Aurora kinase B (Homo sapiens, UniProt Q96GD4). Nature of the data set: Inhibition of Aurora B.
Data set [6] in a line: Inhibition of Aurora kinase in human HeLa cells assessed as induction of >=4N DNA content. The data set is classed as cell-based.
The nature of data set [7]: Clearance in Sprague-Dawley rat at 0.5 mg/kg, iv. It is filed as ADME, organism-based. On the set-up: dose 0.5 mg/kg, route intravenous. As to conditions: in vivo.
Data set [8] is described as follows: Volume of distribution at steady state in Sprague-Dawley rat at 0.5 mg/kg, iv. It is filed as ADME, organism-based. On the set-up: dose 0.5 mg/kg, route intravenous. As to conditions: in vivo, read-out: Vdss.
Data set [9] in a line: Half life in Sprague-Dawley rat at 0.5 mg/kg, iv. The data set is classed as ADME, organism-based. On the set-up: dose 0.5 mg/kg, route intravenous. The conditions noted are these: in vivo.
A short description of data set [10]: Oral bioavailability in Sprague-Dawley rat at 5 mg/kg. The conditions noted are these: in vivo. The data set is classed as ADME, organism-based.
Data set [11] deals with Mus musculus. Nature of the data set: Inhibition of human angiopoietin-1-stimulated Tie2 phosphorylation in po dosed mouse lung tissue model. It is filed as functional, organism-based.
Data set [12] has as its system Mus musculus. Nature of the data set: Inhibition of human angiopoietin-1-stimulated Tie2 phosphorylation in mouse lung tissue model at >=30 mg/kg, po. It is filed as functional, organism-based.
Data set [13] has as its system Mus musculus. Kind of data set: Inhibition of human angiopoietin-1-stimulated Tie2 phosphorylation in mouse lung tissue model at 10 mg/kg, po. The data set is classed as functional. The arrangement: scale not given: the % may be the effect or the level left.
Data set [14] relates to Mus musculus. Kind of data set: Plasma concentration in mouse at 10 mg/kg, po. The arrangement: dose 10 mg/kg, route oral. As to conditions: in vivo. It is filed as ADME, organism-based.
The nature of data set [15]: Protein binding in mouse plasma. It is filed as ADME, cell-free. The conditions noted are these: read-out: PPB (converted).
In data set [16] the test system is Plasma. Nature of the data set: Unbound concentration in mouse plasma.
Data set [17] can be described thus: Inhibition of JNK.

Activity calls are given as the source filed them. The calls are words filed in the database; no cut-off is given here.

Usually IC50 stands for the point on the concentration scale where inhibition reaches its midpoint. One may read the clearance as the rate of elimination divided by the concentration. As a reminder, the half-life is how long it takes for the measured level to halve. In general, bioavailability refers to the share of a dose that reaches the circulation, judged against a reference dose that is usually intravenous. What is called EC50 is the concentration at which the effect is half-maximal.

T1 sequence (Q02763 whole entry): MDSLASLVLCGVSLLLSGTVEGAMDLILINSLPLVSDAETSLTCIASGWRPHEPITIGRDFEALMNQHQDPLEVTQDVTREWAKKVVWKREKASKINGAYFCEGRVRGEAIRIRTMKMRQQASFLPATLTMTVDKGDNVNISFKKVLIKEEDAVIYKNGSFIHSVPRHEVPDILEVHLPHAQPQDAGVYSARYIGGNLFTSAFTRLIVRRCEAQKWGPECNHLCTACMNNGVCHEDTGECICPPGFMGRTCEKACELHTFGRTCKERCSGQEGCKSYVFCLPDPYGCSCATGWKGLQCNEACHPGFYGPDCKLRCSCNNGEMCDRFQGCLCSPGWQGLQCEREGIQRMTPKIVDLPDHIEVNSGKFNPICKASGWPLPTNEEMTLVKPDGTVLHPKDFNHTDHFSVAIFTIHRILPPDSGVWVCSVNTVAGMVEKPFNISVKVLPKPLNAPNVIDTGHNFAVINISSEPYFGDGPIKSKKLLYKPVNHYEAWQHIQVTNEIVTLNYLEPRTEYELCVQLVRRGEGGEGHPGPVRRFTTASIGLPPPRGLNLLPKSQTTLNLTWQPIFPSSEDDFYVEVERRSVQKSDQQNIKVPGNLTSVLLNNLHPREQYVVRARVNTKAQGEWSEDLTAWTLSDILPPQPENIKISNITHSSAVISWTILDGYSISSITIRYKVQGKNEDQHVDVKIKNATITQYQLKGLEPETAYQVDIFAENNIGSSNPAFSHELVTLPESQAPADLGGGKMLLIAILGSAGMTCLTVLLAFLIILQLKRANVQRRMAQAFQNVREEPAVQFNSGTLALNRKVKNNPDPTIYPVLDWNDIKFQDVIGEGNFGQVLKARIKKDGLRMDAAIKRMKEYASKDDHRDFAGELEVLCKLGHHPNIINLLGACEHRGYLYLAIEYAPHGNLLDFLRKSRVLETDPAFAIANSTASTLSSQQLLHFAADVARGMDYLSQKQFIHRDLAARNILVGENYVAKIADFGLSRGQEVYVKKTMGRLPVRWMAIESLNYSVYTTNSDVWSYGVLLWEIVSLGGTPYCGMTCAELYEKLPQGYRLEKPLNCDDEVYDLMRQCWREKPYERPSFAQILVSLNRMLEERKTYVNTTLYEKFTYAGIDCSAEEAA
Chain of Vascular endothelial growth factor receptor 2 (P35968 whole entry): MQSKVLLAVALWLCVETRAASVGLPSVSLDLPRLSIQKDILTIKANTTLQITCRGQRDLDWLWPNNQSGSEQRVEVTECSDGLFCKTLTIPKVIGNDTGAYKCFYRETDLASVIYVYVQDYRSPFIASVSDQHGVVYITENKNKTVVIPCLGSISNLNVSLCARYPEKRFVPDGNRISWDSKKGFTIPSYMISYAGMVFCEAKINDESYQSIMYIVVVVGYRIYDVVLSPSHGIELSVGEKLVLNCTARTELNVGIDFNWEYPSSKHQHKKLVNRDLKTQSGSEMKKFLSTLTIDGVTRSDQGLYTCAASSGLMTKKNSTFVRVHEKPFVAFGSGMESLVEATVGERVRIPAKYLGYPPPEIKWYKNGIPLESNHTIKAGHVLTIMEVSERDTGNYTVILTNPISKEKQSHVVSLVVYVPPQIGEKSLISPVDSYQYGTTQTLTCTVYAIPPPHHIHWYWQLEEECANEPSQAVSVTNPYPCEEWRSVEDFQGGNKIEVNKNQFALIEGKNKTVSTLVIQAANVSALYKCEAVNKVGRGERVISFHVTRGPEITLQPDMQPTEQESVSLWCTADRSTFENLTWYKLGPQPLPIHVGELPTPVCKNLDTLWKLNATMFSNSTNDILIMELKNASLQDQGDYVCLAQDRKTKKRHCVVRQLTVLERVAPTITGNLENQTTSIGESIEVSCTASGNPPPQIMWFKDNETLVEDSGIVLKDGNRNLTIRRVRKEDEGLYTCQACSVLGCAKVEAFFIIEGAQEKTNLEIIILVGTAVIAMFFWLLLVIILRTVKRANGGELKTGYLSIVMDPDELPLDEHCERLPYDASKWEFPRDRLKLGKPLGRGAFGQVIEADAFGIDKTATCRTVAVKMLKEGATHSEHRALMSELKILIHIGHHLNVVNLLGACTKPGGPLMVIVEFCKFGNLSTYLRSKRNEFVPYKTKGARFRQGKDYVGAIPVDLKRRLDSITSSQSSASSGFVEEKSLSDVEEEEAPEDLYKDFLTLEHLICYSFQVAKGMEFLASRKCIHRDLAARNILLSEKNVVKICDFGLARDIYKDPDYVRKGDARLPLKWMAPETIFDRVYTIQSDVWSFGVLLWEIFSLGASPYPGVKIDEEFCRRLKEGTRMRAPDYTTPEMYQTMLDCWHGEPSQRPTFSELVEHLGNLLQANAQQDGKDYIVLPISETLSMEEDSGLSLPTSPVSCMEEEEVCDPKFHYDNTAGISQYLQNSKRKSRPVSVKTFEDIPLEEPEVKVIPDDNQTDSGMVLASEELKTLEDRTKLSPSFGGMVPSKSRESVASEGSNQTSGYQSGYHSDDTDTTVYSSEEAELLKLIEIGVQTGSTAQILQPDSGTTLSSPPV
Chain of Aurora kinase B (Q96GD4 whole entry): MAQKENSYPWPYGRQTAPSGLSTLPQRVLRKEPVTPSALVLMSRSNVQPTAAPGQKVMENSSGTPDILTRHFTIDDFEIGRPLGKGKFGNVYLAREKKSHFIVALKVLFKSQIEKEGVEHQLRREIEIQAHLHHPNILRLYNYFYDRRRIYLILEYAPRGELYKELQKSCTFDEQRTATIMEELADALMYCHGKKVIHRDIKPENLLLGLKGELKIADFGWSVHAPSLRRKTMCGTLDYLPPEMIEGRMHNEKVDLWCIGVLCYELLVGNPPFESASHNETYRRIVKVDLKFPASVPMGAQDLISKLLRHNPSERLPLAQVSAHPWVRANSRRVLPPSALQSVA

With `CNc1nccc(-c2cccnc2Oc2ccc(NC(=O)Nc3cccc(C(F)(F)F)c3)cc2C)n1`, in data set [1], the IC50 came out at 34 nM.

Turning to `CNc1nccc(-c2cccnc2Oc2ccc(NC(=O)Nc3ccccc3)cc2C)n1`, the IC50 was determined as 460 nM in data set [2] and 7600 nM in [1].

Regarding `CNc1nccc(-c2cccnc2Oc2ccc(Nc3nc4ccccc4[nH]3)cc2)n1`, the IC50 in data set [2] was 250 nM; in data set [1], more than 25000 nM.

With `CNc1nccc(-c2cccnc2Oc2ccc(Nc3nc4ccc(C(F)(F)F)cc4[nH]3)cc2C)n1`, the IC50 in data set [2] was 470 nM; in data set [1], 6000 nM.

Take `CNc1nccc(-c2cccnc2Oc2ccc(Nc3nc4ccccc4[nH]3)c(C)c2)n1`: the IC50 in [2] was 590 nM; in data set [1], more than 25000 nM.

On to `CNc1nccc(-c2cccnc2Oc2ccc(Nc3nc4cc(C(F)(F)F)ccc4[nH]3)c3ccccc23)n1`, for which the IC50 was 27 nM in data set [2] and 69 nM in data set [1].

Take `CNc1nccc(-c2cccnc2Oc2ccc(Nc3nc4ccccc4[nH]3)cc2C)n1`: the IC50 is 23 nM in data set [2], more than 25000 nM in [1] and 250 nM in [3].

On to `CNc1nccc(-c2cccnc2Oc2ccc(Nc3nc4ccccc4[nH]3)c(C)c2C)n1`, for which the IC50 in data set [2] was 310 nM; in [1], more than 25000 nM.

For `CNc1nccc(-c2cccnc2Oc2c(C)cc(Nc3nc4ccccc4[nH]3)c3ccccc23)n1`, the IC50 in data set [1] was more than 5000 nM; in [4] it was 28 nM; in data set [5], 80 nM; in data set [6], more than 1200 nM. In data set [7], this compound came in with a clearance of 28 mL/min/kg. In [8], the Vd turned out to be 5.9 L/kg. The compound further gave a half-life in data set [9] of 3.7 h. Also, in data set [10], the bioavailability was 26%. In addition, the Activity entry in data set [11] is “Dose-dependent effect”; in [13], 50%. Also, in data set [12], the result was Active. Also, the concentration in data set [14] worked out at 260 nM. In data set [15], the fraction unbound is 0.004. The compound also displayed an unbound plasma concentration in [16] of 1 nM.

As to `CNc1nccc(-c2cccnc2Oc2ccc(Nc3nc4ccccc4o3)c3ccccc23)n1`, the 50% inhibitory concentration (IC50) in data set [2] is 16 nM; in data set [1], 30 nM.

For the compound `CNc1nccc(-c2cccnc2Oc2ccc(Nc3nc4ccccc4n3C)c3ccccc23)n1`, the IC50 in [2] was determined as 240 nM; in data set [1], 250 nM.

For the compound `CNc1nccc(-c2cccnc2Oc2ccc(NC(=O)Nc3ccccc3)c3ccccc23)n1`, the IC50 in [2] came out at 5 nM; in data set [1] it was 40 nM.

For `CNc1nccc(-c2cccnc2Oc2ccc(Nc3nc4ccccc4[nH]3)c3ccccc23)n1`, the EC50 in data set [17] is less than 100 nM. For the same compound, the IC50 in [2] is 1 nM; in data set [1] it was 1400 nM; in [3], 20 nM; in [4] it was 19 nM; in [5], 10 nM; in data set [6], 120 nM.

Regarding `CNc1nccc(-c2cccnc2Oc2ccc(Nc3nc4c(C)cccc4[nH]3)c3ccccc23)n1`, the IC50 in data set [2] is 110 nM; in [1] it was 1570 nM.

Consider `CNc1nccc(-c2cccnc2Oc2ccc(Nc3nc4ccccc4s3)c3ccccc23)n1`, for which the IC50 in data set [2] was determined as 44 nM; in data set [1], 88 nM.
